Tests used:
Mustela putorius furo = assay: In vivo antiemetic activity against radiation-induced emesis in ferret.; type: functional
Substance-P receptor = Substance-P receptor (Homo sapiens, UniProt P25103); assay: Inhibition of [3H]-substance P binding to human NK1 receptor expressed in chinese hamster ovary cells; type: cell-based, CHO
Substance-P receptor, sequence (P25103 whole entry): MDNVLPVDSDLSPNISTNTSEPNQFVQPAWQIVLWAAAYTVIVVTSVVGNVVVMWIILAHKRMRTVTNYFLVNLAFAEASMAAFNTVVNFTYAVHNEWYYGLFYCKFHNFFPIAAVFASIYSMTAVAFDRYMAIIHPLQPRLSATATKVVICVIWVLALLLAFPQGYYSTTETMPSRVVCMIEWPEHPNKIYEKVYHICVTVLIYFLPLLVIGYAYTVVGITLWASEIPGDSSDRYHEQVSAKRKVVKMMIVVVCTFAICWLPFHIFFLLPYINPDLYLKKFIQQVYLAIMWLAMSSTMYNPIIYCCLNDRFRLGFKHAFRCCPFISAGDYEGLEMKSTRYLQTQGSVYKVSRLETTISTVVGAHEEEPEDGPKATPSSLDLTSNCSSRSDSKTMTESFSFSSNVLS

Row | SMILES | Ki (Substance-P receptor) | ED90 (Mustela putorius furo)
1 | COc1ccc(-n2nnnc2C2CC2)cc1CN[C@H]1CCCN[C@H]1c1ccccc1.Cl.Cl | 0.0794 nM | > 1 mg/kg
2 | COc1ccc(-n2nnnc2N)cc1CN[C@H]1CCCN[C@H]1c1ccccc1 | 1 nM | –
3 | CCCc1nnnn1-c1ccc(OC)c(CN[C@H]2CCCN[C@H]2c2ccccc2)c1.Cl.Cl | 0.0398 nM | > 3 mg/kg
4 | COc1ccc(-n2nnnc2C)cc1CN[C@H]1CCCN[C@H]1c1ccccc1.Cl.Cl | 0.0501 nM | 0.15 mg/kg
5 | COc1ccc(-n2nnnc2-c2ccccc2)cc1CN[C@H]1CCCN[C@H]1c1ccccc1.Cl.Cl | 0.398 nM | > 1 mg/kg
6 | COc1ccc(-n2cnnn2)cc1CN[C@H]1CCCN[C@H]1c1ccccc1.Cl.Cl | 0.0398 nM | 0.1 mg/kg
7 | COc1ccc(-n2nnnc2SC)cc1CN[C@H]1CCCN[C@H]1c1ccccc1.Cl.Cl | 0.0398 nM | 1 mg/kg
8 | COc1ccc(-n2nnnc2C(F)(F)F)cc1CN[C@H]1CCCN[C@H]1c1ccccc1.Cl.Cl [VOFOPITANT DIHYDROCHLORIDE] | 0.0251 nM | 0.03 mg/kg

More lines, in order of falling Ki (Substance-P receptor), values ahead:

Row | Ki (Substance-P receptor) | SMILES | ED90 (Mustela putorius furo)
9 | 2 nM | CCN(CC)c1nnnn1-c1ccc(OC)c(CN[C@H]2CCCN[C@H]2c2ccccc2)c1 | –
10 | 0.251 nM | COc1ccc(-n2nnnc2NC(C)=O)cc1CN[C@H]1CCCN[C@H]1c1ccccc1 | –
11 | 0.0631 nM | COc1ccc(-n2nnnc2S(C)(=O)=O)cc1CN[C@H]1CCCN[C@H]1c1ccccc1.Cl.Cl | > 1 mg/kg
12 | 0.0501 nM | CCc1nnnn1-c1ccc(OC)c(CN[C@H]2CCCN[C@H]2c2ccccc2)c1.Cl.Cl | 0.3 mg/kg

— ChEMBL document CHEMBL1129726, “Tetrazole NK1 receptor antagonists: The identification of an exceptionally potent orally active antiemetic compound” (Bioorg Med Chem Lett, 1996)
